For 36 molecules, IC50 results are on record in ChEMBL document CHEMBL4680094, “Insights of a Lead Optimization Study and Biological Evaluation of Novel 4-Hydroxytamoxifen Analogs as Estrogen-Related Receptor γ (ERRγ) Inverse Agonists” (J Med Chem, 2016).

In test [1] the target is T1, Estrogen-related receptor gamma (Homo sapiens, UniProt P62508).
T1 sequence (P62508 whole entry): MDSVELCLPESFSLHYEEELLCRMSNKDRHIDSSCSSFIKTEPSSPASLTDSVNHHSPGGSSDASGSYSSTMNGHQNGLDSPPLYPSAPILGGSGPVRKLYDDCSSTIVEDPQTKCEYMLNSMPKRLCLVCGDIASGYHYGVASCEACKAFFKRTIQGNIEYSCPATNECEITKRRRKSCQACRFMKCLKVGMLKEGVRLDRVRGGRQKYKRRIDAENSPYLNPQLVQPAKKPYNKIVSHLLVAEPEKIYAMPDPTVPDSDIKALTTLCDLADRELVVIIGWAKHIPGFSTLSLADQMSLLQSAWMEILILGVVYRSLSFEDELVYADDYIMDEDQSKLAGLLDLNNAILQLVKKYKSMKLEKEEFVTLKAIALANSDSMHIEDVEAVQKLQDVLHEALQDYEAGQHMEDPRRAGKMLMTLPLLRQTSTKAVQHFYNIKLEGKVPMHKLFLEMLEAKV

Test [2] deals with T2, Steroid hormone receptor ERR1 (Homo sapiens, UniProt P11474).
T2 sequence (P11474 whole entry): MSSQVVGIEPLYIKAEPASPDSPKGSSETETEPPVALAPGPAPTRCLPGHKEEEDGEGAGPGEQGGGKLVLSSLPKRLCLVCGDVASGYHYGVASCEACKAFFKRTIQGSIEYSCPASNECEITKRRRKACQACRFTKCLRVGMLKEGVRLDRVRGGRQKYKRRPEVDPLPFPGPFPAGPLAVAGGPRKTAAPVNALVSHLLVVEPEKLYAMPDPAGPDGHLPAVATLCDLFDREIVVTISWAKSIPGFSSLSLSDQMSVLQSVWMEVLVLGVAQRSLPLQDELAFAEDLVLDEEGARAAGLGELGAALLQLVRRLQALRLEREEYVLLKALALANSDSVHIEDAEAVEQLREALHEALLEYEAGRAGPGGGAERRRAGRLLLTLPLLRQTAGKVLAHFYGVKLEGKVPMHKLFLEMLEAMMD
Briefly: Binding affinity to GST-tagged ERRalpha LBD (unknown origin) using fluorescein PGC1alpha as coactivator incubated for 1 hr by LanthaScreen TR-FRET co-regulator assay. (In TR-FRET formats the signal depends on donor and acceptor labels being close together.)

In test [3] the target is T3, Steroid hormone receptor ERR2 (Homo sapiens, UniProt O95718).
T3 sequence (O95718 whole entry): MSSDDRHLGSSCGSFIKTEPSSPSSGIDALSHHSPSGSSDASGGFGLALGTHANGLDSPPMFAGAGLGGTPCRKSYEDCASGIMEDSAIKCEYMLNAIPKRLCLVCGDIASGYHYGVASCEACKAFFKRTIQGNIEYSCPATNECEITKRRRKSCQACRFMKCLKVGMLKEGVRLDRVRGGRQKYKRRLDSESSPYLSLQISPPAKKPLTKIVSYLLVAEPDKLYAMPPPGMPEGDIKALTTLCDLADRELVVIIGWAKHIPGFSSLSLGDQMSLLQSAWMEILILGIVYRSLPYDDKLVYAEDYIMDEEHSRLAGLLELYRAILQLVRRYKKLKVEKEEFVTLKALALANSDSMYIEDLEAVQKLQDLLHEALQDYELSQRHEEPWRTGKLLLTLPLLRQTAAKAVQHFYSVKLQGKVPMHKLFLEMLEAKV
Description: Binding affinity to GST-tagged ERRbeta LBD (unknown origin) using fluorescein PGC1alpha as coactivator incubated for 1 hr by LanthaScreen TR-FRET co-regulator assay.

The next test deals with T4, Estrogen receptor (Homo sapiens, UniProt P03372).
T4 sequence (P03372 whole entry): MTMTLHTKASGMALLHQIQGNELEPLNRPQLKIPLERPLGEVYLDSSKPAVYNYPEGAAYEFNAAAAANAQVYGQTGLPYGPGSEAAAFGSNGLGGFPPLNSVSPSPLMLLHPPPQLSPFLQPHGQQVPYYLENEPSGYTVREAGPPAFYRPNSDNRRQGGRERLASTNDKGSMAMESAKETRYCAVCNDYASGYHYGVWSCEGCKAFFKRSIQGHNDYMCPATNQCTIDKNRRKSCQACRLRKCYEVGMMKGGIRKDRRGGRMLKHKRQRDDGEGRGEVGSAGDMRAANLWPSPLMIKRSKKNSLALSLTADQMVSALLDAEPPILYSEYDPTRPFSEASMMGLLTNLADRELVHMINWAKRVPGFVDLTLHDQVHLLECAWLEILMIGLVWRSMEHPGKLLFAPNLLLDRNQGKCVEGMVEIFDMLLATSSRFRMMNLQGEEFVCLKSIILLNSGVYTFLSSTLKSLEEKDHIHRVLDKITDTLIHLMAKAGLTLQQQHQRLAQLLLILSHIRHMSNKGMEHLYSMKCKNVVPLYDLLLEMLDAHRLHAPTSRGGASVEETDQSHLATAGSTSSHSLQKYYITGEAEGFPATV
Briefly: Binding affinity to GST-tagged ERalpha LBD (unknown origin) using fluorescein PGC1alpha as coactivator incubated for 1 hr by LanthaScreen TR-FRET co-regulator assay.

In general, IC50 refers to the concentration that inhibits the measured activity by half. Lower therefore signals inhibition by little substance.

Molecules are shown by their SMILES.

Molecule `OCCC/C(=C(\c1ccc(O)cc1)c1ccc2c(c1)CCN2CCN1CCCC1)c1ccccc1` registered an IC50 in test [1] of 8020 nM. In test [1], `CN1C[C@@H]1CCCOc1ccc(/C(=C(/CCCO)c2ccccc2)c2ccc(O)cc2)cc1` (stereo not given in full) registered a half-maximal inhibitory concentration (IC50) of 1090 nM. Take `CN1CCC[C@H]1CCOc1ccc(/C(=C(/CCCO)c2ccccc2)c2ccc(O)cc2)cc1`: the concentration for half-maximal inhibition (IC50) in test [2] is more than 10000 nM; in test [3], 8590 nM; at Estrogen receptor, 724 nM. On to `OCCC/C(=C(\c1ccc(O)cc1)c1ccc(OCCN2CCC[C@@H]2CO)cc1)c1ccccc1`, for which the half-inhibitory concentration (IC50) in test [2] and in test [3] was more than 10000 nM each time. The molecule `C[Si](C)(CN1CCNCC1)c1ccc(/C(=C(/CCCO)c2ccccc2)c2ccc(O)cc2)cc1` had a concentration for half-maximal inhibition (IC50) in test [1] of 1280 nM. As for `OCCC/C(=C(\c1ccc(O)cc1)c1ccc2oc(CCN3CCNCC3)cc2c1)c1ccccc1`, in test [1], the 50% inhibitory concentration (IC50) was determined as 894 nM.

`C[Si](C)(CN1CCCCC1)c1ccc(/C(=C(/CCCO)c2ccccc2)c2ccc(O)cc2)cc1`: the IC50 was more than 10000 nM in test [2], more than 10000 nM in test [3], 4360 nM on Estrogen receptor and 248 nM in test [1]. On to `C[Si](C)(CN1CCCC1)c1ccc(/C(=C(/CCCO)c2ccccc2)c2ccc(O)cc2)cc1`, for which the 50% inhibitory concentration (IC50) in test [2] is more than 10000 nM; in test [3] it was more than 10000 nM; on Estrogen receptor, more than 10000 nM; in test [1], 813 nM. For `OCCC/C(=C(\c1ccc(O)cc1)c1ccc(OCCN2CCNCC2)cc1)c1ccccc1`, the IC50 in test [1] came out at 1040 nM. With `CN1C[C@H]1CCCOc1ccc(/C(=C(/CCCO)c2ccccc2)c2ccc(O)cc2)cc1` (stereo not given in full), the IC50 in test [1] is 784 nM. For `OCCC/C(=C(\c1ccc(O)cc1)c1ccc2oc(CCN3CCCCC3)cc2c1)c1ccccc1`, the IC50 in test [2] was more than 10000 nM; in test [3], more than 10000 nM; at Estrogen receptor, 660 nM; in test [1], 268 nM. `CN1CCC[C@@H]1CCOc1ccc(/C(=C(/CCCO)c2ccccc2)c2ccc(O)cc2)cc1`: the 50% inhibitory concentration (IC50) is more than 10000 nM in test [2], more than 10000 nM in test [3] and 784 nM at Estrogen receptor.

Regarding `OCCC/C(=C(\c1ccc(O)cc1)c1ccc(OCCN2CC2)cc1)c1ccccc1`, the IC50 in test [2] is more than 10000 nM; in test [3] it was 3720 nM; in test [1], 70 nM. The molecule `O=C(CN1CCCCC1)Nc1ccc(/C(=C(/CCCO)c2ccccc2)c2ccc(O)cc2)cc1` gave an IC50 in test [1] of 2780 nM. `CC(C)(C)OC(=O)N1CCC(n2cc(/C(=C(/CCCO)c3ccccc3)c3ccc(O)cc3)cn2)CC1`: the IC50 in test [1] is more than 10000 nM.

On to `OCCC/C(=C(\c1ccc(O)cc1)c1ccc(OCCN2C[C@H]3CNC[C@H]3C2)cc1)c1ccccc1`, for which the IC50 in test [2] was more than 10000 nM; in test [3], more than 10000 nM; on Estrogen receptor it was 407 nM; in test [1], 165 nM. In turn, `O=[N+]([O-])c1ccc(/C(=C(\CCCO)c2ccccc2)c2ccc(N3CCC4(CCNC4)C3)cc2)cc1` (stereo not given) displayed an IC50 in test [1] of 8230 nM. In turn, `CN1CCN(Cc2ccc(/C(=C(/CCCO)c3ccccc3)c3ccc(O)cc3)cc2)CC1` had an IC50 in test [1] of 2340 nM. `OCCC/C(=C(\c1ccc(O)cc1)c1ccc(OCCN2C[C@H]3C[C@H]3[C@H]2CO)cc1)c1ccccc1` returned a concentration for half-maximal inhibition (IC50) in test [2] of more than 10000 nM.

In turn, `Cc1ccc(/C(=C(\CCCO)c2ccccc2)c2ccc3oc(CCN4CCNCC4)cc3c2)cc1` returned a 50% inhibitory concentration (IC50) in test [1] of 2130 nM.

Consider `OCCC/C(=C(\c1ccc(O)cc1)c1ccc(OCCN2CCCC2)cc1)c1ccccc1`, for which the 50% inhibitory concentration (IC50) is more than 10000 nM in test [2], more than 10000 nM in test [3] and 649 nM on Estrogen receptor.

With `OCCC/C(=C(\c1ccc(O)cc1)c1ccc(N2CCOCC2)cc1)c1ccccc1`, it took 2230 nM to reach half-maximal inhibition in test [1] (IC50).

Consider `OCCC/C(=C(\c1ccc(O)cc1)c1ccc(OCCN2CCC3(CCNC3)C2)cc1)c1ccccc1` (stereo not given), for which the IC50 in test [2] is more than 10000 nM; in test [3], more than 10000 nM; on Estrogen receptor, 5600 nM; in test [1], 326 nM. In turn, `OCCC/C(=C(\c1ccc(Br)cc1)c1ccc(OCCN2CC2)cc1)c1ccccc1` came in with an IC50 in test [1] of 1520 nM. In turn, `CN1CCN(CCOc2ccc(/C(=C(/CCCO)c3ccccc3)c3ccc(O)cc3)cc2)CC1` showed an IC50 in test [1] of 2200 nM. `O=C(Nc1ccc(/C(=C(/CCCO)c2ccccc2)c2ccc(O)cc2)cc1)C1CCCN1` (stereo not given) returned an IC50 in test [1] of more than 10000 nM. For the molecule `CN1CCN(Cc2ccc(/C(=C(/CCCO)c3ccccc3)c3ccc([N+](=O)[O-])cc3)cc2)CC1`, the concentration for half-maximal inhibition (IC50) in test [1] is more than 10000 nM. In test [1], `OCCC/C(=C(\c1ccc(O)cc1)c1ccc(NCCN2CCCCC2)cc1)c1ccccc1` yielded an IC50 of 1550 nM. The same measure, in the same setting: for `CN1C[C@@H]1CCCOc1ccc(/C(=C(/CCCO)c2ccccc2)c2ccc(Br)cc2)cc1` (stereo not given in full) the value was 1660 nM; for `OCCC/C(=C(\c1ccc(Br)cc1)c1ccc(CN2CCCCC2)cc1)c1ccccc1`, 2300 nM; for `O=C(CN1C[C@H]2CNC[C@H]2C1)Nc1ccc(/C(=C(/CCCO)c2ccccc2)c2ccc(O)cc2)cc1`, 7420 nM.

In test [1], `CN(C)CCn1cc(-c2ccc(/C(=C(/CCCO)c3ccccc3)c3ccc(O)cc3)cc2)nn1` showed an IC50 of 6300 nM. In test [1], `CN1CCN(C[Si](C)(C)c2ccc(/C(=C(/CCCO)c3ccccc3)c3ccc(O)cc3)cc2)CC1` registered a half-inhibitory concentration (IC50) of 1260 nM. For the molecule `C[Si](C)(CN1C[C@H]2CNC[C@H]2C1)c1ccc(/C(=C(/CCCO)c2ccccc2)c2ccc(O)cc2)cc1`, the IC50 in test [1] was 460 nM.

As for `OCCC/C(=C(\c1ccc(O)cc1)c1ccc(OCCN2CC3CC3C2)cc1)c1ccccc1` (stereo not given), the IC50 in test [2] was more than 10000 nM.

Regarding `OCCC/C(=C(\c1ccc(O)cc1)c1ccc2c(ccn2CCN2CCCCC2)c1)c1ccccc1`, the IC50 in test [1] stood at 3610 nM.
